In one series the test system is Escherichia coli. The experiment in a line: Antimicrobial activity against Escherichia coli after 1 to 5 days by two-fold dilution. The series is classed as functional, organism-based.
Series [1] relates to Staphylococcus aureus. As to the kind of experiment: Antimicrobial activity against Staphylococcus aureus after 1 to 5 days by two-fold dilution. The series is classed as functional, organism-based.
The subject of series [2] is Mycolicibacterium smegmatis. As to the kind of experiment: Antimicrobial activity against Mycobacterium smegmatis after 1 to 5 days by two-fold dilution. The series is classed as functional, organism-based.
The subject of series [3] is Bacillus subtilis. The experiment in a line: Antimicrobial activity against Bacillus subtilis after 1 to 5 days by two-fold dilution. The series is classed as functional, organism-based.
The next series has as its system Pseudomonas aeruginosa. As to the kind of experiment: Antimicrobial activity against Pseudomonas aeruginosa after 1 to 5 days by two-fold dilution. The series is classed as functional, organism-based.
For a further series, the system named is Streptococcus pneumoniae. The experiment in a line: Antimicrobial activity against Streptococcus pneumoniae. The series is classed as functional.
A short description of series [4]: Inhibition of ATP synthase in Mycobacterium smegmatis. Also on record: species or system Mycolicibacterium smegmatis.
Series [5] is described as follows: Selectivity index, ratio of CC50 for human HepG2 cells to MIC of Mycobacterium tuberculosis H37Rv. The series is classed as toxicity.
Series [6] concerns the target ATP synthase (Mycobacterium tuberculosis) (UniProt P9WPU9+P9WPU5+P9WPU7+P9WPV5+P9WPS1+P9WPV1+P9WPV7+P9WPV3). As to the kind of experiment: Inhibition of ATP synthase in Mycobacterium tuberculosis H37Rv whole cell lysate after 18 hrs at 10X of MIC relative to control. The series is classed as subcellular.
A short description of series [7]: Selectivity index, ratio of IC50 for ATP synthase in Mycobacterium tuberculosis H37Rv to IC50 for mitochondrial ATP synthase isolated from swiss albino mouse liver.
For the next series, the species on record is Mus musculus. As to the kind of experiment: Inhibition of mitochondrial ATP synthase isolated from Swiss albino mouse liver at 100 uM using succinate as substrate after 1 hr relative to control.
For series [8], the system named is Mycobacterium tuberculosis. As to the kind of experiment: Antimicrobial activity against Mycobacterium tuberculosis H37Rv. The series is classed as functional, organism-based.
The test system of a further series is Saccharomyces cerevisiae. The experiment in a line: Inhibition of F1F0-ATP synthase in yeast relative to control. The conditions noted are these: concentration not given here.
The test system of a further series is Sporotrichum. As to the kind of experiment: Antifungal activity against Sporotrichum. The series is classed as functional.
The test system of a further series is Trichophyton. The experiment in a line: Antifungal activity against Trichophyton. The series is classed as functional.
In a further series the test system is Candida. The experiment in a line: Antifungal activity against Candida. The series is classed as functional.
In a further series the test system is Enterococcus faecalis. The experiment in a line: Antimicrobial activity against Streptococcus faecalis. The series is classed as functional.
Series [9] concerns Bacillus subtilis. As to the kind of experiment: Antimicrobial activity against Bacillus subtilis. The series is classed as functional.
A further series has as its system Streptococcus pyogenes. The experiment in a line: Antimicrobial activity against Streptococcus pyogenes. The series is classed as functional.
The next series concerns Micrococcus luteus. As to the kind of experiment: Antimicrobial activity against Sarcina lutea. The series is classed as functional.
Series [10] deals with Staphylococcus aureus. The experiment in a line: Antimicrobial activity against Staphylococcus aureus. The series is classed as functional.
The next series has as its system Microbacterium. As to the kind of experiment: Antimicrobial activity against Microbacterium species. The series is classed as functional.
The test system of another series is Microsporum. As to the kind of experiment: Antifungal activity against Microsporum. The series is classed as functional.
Series [11] is described as follows: Antifungal activity against Cryptococcus. The series is classed as functional.

Values after ≈ are worked out from the molar mass of the structure shown. Starred links: 1 amine or outer side, 2 acyl side, 3 side chain; linkers in the order of their positions; H or OH if unused. Non-standard residues stand in square brackets, D forms with d. Residues, ends and D or L forms follow the SMILES beside them. *: point of attachment. X2 = CCC(=O)C[C@@H](O)CC(C)C[C@H](N[*:1])C(=O)[*:2]; Leu(3R-OH) = CC(C)[C@@H](O)[C@H](N)C(=O)O; NH((S)CH(Me)CH2NMe2) = C[C@@H](CN(C)C)N*; Pro(4S-Me) = C[C@@H]1CN[C@H](C(=O)O)C1; X1 = CC[C@@H](C)/C=C/C(=O)*; Aib = CC(C)(N)C(=O)O; βAla = NCCC(=O)O

On to `FC(F)(F)Oc1cccc(CNCCNC2C3CC4CC(C3)C2C4)c1` (centres undefined), for which the MIC against Escherichia coli was found to be 6.25 µg/mL (≈ 17.6 µM); in the series with Staphylococcus aureus [1], 6.25 µg/mL (≈ 17.6 µM); against Bacillus subtilis [3], 6.25 µg/mL (≈ 17.6 µM); in the series on Pseudomonas aeruginosa, 12.5 µg/mL (≈ 35.3 µM). This compound registered an IC50 in series [2] of 20 µM.

Regarding `COc1nc2ccc(Br)cc2cc1[C@H](c1ccccc1)[C@](O)(CCN(C)C)c1ccc(Cl)cc1`, the minimum inhibitory concentration (MIC) against Streptococcus pneumoniae is 1 µg/mL (≈ 1.85 µM).

In the case of `COc1ccc(/C=C2/S/C(=N/N=C/c3ccccc3O)NC2=O)cc1`, inhibition in [4] was half-maximal at 0.312 µM (IC50). In addition, the selectivity ratio in series [5] worked out at 80. Also, the inhibition in series [6] was 15 to 30%; in the series listed under Mus musculus, 32%. Besides, the Ratio IC50 in series [7] was found to be 51. Besides, the MIC in series [8] came to 0.5 µg/mL (≈ 1.41 µM).

As for `COc1cc(=O)oc(/C=C/C=C/C=C/C(C)=C/[C@]2(C)O[C@H](C)[C@](C)(O)[C@H]2O)c1C`, the inhibition in the series with Saccharomyces cerevisiae amounted to 85%.

On to `CCC(=O)C[C@@H](O)CC(C)C[C@H](NC(=O)[C@@H]1C[C@H](C)CN1C(=O)/C=C/[C@H](C)CC)C(=O)N[C@H](C(=O)NC(C)(C)C(=O)N[C@@H](CC(C)C)C(=O)N[C@@H](CC(C)C)C(=O)NC(C)(C)C(=O)NC(C)(C)C(=O)NCCC(=O)N[C@@H](C)CN(C)C)[C@H](O)C(C)C` (stereo partly drawn) (X1-[Pro(4S-Me)][X2][Leu(3R-OH)][Aib]LL[Aib][Aib][βAla]-{NH((S)CH(Me)CH2NMe2)}), for which the MIC against Sporotrichum was in the range of 1 to 10 µg/mL (≈ 0.821 to 8.21 µM); against Trichophyton, 1 to 10 µg/mL (≈ 0.821 to 8.21 µM); in the series with Candida, 1 to 10 µg/mL (≈ 0.821 to 8.21 µM); against Enterococcus faecalis, 2.52 to 50 µg/mL (≈ 2.07 to 41 µM); against Bacillus subtilis [9], 2.52 to 50 µg/mL (≈ 2.07 to 41 µM); in the series on Streptococcus pyogenes, 2.52 to 50 µg/mL (≈ 2.07 to 41 µM). Moreover, the minimum inhibitory concentration (MIC) against Micrococcus luteus was in the range of 2.52 to 50 µg/mL (≈ 2.07 to 41 µM); in the series on Staphylococcus aureus [10] it was 2.52 to 50 µg/mL (≈ 2.07 to 41 µM); against Microbacterium it was 2.52 to 50 µg/mL (≈ 2.07 to 41 µM); in the series on Microsporum, 1 to 10 µg/mL (≈ 0.821 to 8.21 µM); in series [11], 1 to 10 µg/mL (≈ 0.821 to 8.21 µM).

Usually MIC stands for the lowest concentration found to suppress growth. For orientation: IC50 means the concentration that inhibits the measured activity by half. High values mean lower potency, low ones higher potency. The inhibition is how much of the control response was suppressed. High values mean strong suppression, low ones little suppression.

Values taken from ChEMBL document CHEMBL4414576, “Recent advancements in mechanistic studies and structure activity relationship of FoF1 ATP synthase inhibitor as antimicrobial agent” (Eur J Med Chem, 2019).
